Test system: plants
Assay: Test D pre-emergence, other plants of Tables D1 and D3
Type: in vivo
Details: preemergent, 20 DAA
In short: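 Seeds treated with herbicide safener; sown in soil; glasshouse, 16 h light, 65% humidity. Sprayed day 1 (pre) or ~day 12 (post). Spray in 0.2% v/v adjuvant. Scored 0–100 damage: 20 DAA pre, 15 d post.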

CCn1nc([C@H]2CN(C)C(=O)[C@@H]2C(=O)Nc2cccc(F)c2F)c2cc(F)ccc21 [Compound 8]
damage to plant (100=total damage to plant; 0=no damage to plant), ABUTH (rate 15): 0
damage to plant (100=total damage to plant; 0=no damage to plant), ABUTH (rate 30): 0
damage to plant (100=total damage to plant; 0=no damage to plant), ABUTH (rate 60): 0
damage to plant (100=total damage to plant; 0=no damage to plant), ABUTH (rate 130): 0
damage to plant (100=total damage to plant; 0=no damage to plant), ABUTH (rate 250): 0
damage to plant (100=total damage to plant; 0=no damage to plant), ABUTH (rate 500): 0
damage to plant (100=total damage to plant; 0=no damage to plant), AMARE (rate 15): 0
damage to plant (100=total damage to plant; 0=no damage to plant), AMARE (rate 30): 0
damage to plant (100=total damage to plant; 0=no damage to plant), AMARE (rate 60): 0
damage to plant (100=total damage to plant; 0=no damage to plant), AMARE (rate 130): 0
damage to plant (100=total damage to plant; 0=no damage to plant), AMARE (rate 250): 0
damage to plant (100=total damage to plant; 0=no damage to plant), AMARE (rate 500): 0
damage to plant (100=total damage to plant; 0=no damage to plant), BIDPI (rate 15): 0
damage to plant (100=total damage to plant; 0=no damage to plant), BIDPI (rate 30): 0
damage to plant (100=total damage to plant; 0=no damage to plant), BIDPI (rate 60): 0
damage to plant (100=total damage to plant; 0=no damage to plant), BIDPI (rate 130): 0
damage to plant (100=total damage to plant; 0=no damage to plant), BIDPI (rate 250): 0
damage to plant (100=total damage to plant; 0=no damage to plant), BIDPI (rate 500): 0
damage to plant (100=total damage to plant; 0=no damage to plant), BRAPL (rate 15): 20
damage to plant (100=total damage to plant; 0=no damage to plant), BRAPL (rate 30): 70
damage to plant (100=total damage to plant; 0=no damage to plant), BRAPL (rate 60): 70
damage to plant (100=total damage to plant; 0=no damage to plant), BRAPL (rate 130): 80
damage to plant (100=total damage to plant; 0=no damage to plant), BRAPL (rate 250): 90
damage to plant (100=total damage to plant; 0=no damage to plant), BRAPL (rate 500): 100
damage to plant (100=total damage to plant; 0=no damage to plant), CYPES (rate 15): 0
damage to plant (100=total damage to plant; 0=no damage to plant), CYPES (rate 30): 0
damage to plant (100=total damage to plant; 0=no damage to plant), CYPES (rate 60): 0
damage to plant (100=total damage to plant; 0=no damage to plant), CYPES (rate 130): 0
damage to plant (100=total damage to plant; 0=no damage to plant), CYPES (rate 250): 0
damage to plant (100=total damage to plant; 0=no damage to plant), CYPES (rate 500): 0
damage to plant (100=total damage to plant; 0=no damage to plant), DIGSA (rate 15): 10
damage to plant (100=total damage to plant; 0=no damage to plant), DIGSA (rate 30): 90
damage to plant (100=total damage to plant; 0=no damage to plant), DIGSA (rate 60): 100
damage to plant (100=total damage to plant; 0=no damage to plant), DIGSA (rate 130): 100
damage to plant (100=total damage to plant; 0=no damage to plant), DIGSA (rate 250): 100
damage to plant (100=total damage to plant; 0=no damage to plant), DIGSA (rate 500): 100
damage to plant (100=total damage to plant; 0=no damage to plant), ECHCG (rate 15): 30
damage to plant (100=total damage to plant; 0=no damage to plant), ECHCG (rate 30): 90
damage to plant (100=total damage to plant; 0=no damage to plant), ECHCG (rate 60): 90
damage to plant (100=total damage to plant; 0=no damage to plant), ECHCG (rate 130): 90
damage to plant (100=total damage to plant; 0=no damage to plant), ECHCG (rate 250): 90
damage to plant (100=total damage to plant; 0=no damage to plant), ECHCG (rate 500): 100
damage to plant (100=total damage to plant; 0=no damage to plant), ELEIN (rate 15): 0
damage to plant (100=total damage to plant; 0=no damage to plant), ELEIN (rate 30): 0
damage to plant (100=total damage to plant; 0=no damage to plant), ELEIN (rate 60): 0
damage to plant (100=total damage to plant; 0=no damage to plant), ELEIN (rate 130): 0
damage to plant (100=total damage to plant; 0=no damage to plant), ELEIN (rate 250): 0
damage to plant (100=total damage to plant; 0=no damage to plant), ELEIN (rate 500): 0
damage to plant (100=total damage to plant; 0=no damage to plant), EPHHL (rate 15): 0
damage to plant (100=total damage to plant; 0=no damage to plant), EPHHL (rate 30): 0
damage to plant (100=total damage to plant; 0=no damage to plant), EPHHL (rate 60): 0
damage to plant (100=total damage to plant; 0=no damage to plant), EPHHL (rate 130): 0
damage to plant (100=total damage to plant; 0=no damage to plant), EPHHL (rate 250): 0
damage to plant (100=total damage to plant; 0=no damage to plant), EPHHL (rate 500): 70
damage to plant (100=total damage to plant; 0=no damage to plant), GLXMA (rate 15): 0
damage to plant (100=total damage to plant; 0=no damage to plant), GLXMA (rate 30): 0
damage to plant (100=total damage to plant; 0=no damage to plant), GLXMA (rate 60): 0
damage to plant (100=total damage to plant; 0=no damage to plant), GLXMA (rate 130): 0
damage to plant (100=total damage to plant; 0=no damage to plant), GLXMA (rate 250): 0
damage to plant (100=total damage to plant; 0=no damage to plant), GLXMA (rate 500): 0
damage to plant (100=total damage to plant; 0=no damage to plant), IPOHE (rate 15): 0
damage to plant (100=total damage to plant; 0=no damage to plant), IPOHE (rate 30): 0
damage to plant (100=total damage to plant; 0=no damage to plant), IPOHE (rate 60): 0
damage to plant (100=total damage to plant; 0=no damage to plant), IPOHE (rate 130): 0
damage to plant (100=total damage to plant; 0=no damage to plant), IPOHE (rate 250): 0
damage to plant (100=total damage to plant; 0=no damage to plant), IPOHE (rate 500): 0
damage to plant (100=total damage to plant; 0=no damage to plant), ORYSA (rate 15): 0
damage to plant (100=total damage to plant; 0=no damage to plant), ORYSA (rate 30): 0
damage to plant (100=total damage to plant; 0=no damage to plant), ORYSA (rate 60): 0
damage to plant (100=total damage to plant; 0=no damage to plant), ORYSA (rate 130): 0
damage to plant (100=total damage to plant; 0=no damage to plant), ORYSA (rate 250): 0
damage to plant (100=total damage to plant; 0=no damage to plant), ORYSA (rate 500): 0
damage to plant (100=total damage to plant; 0=no damage to plant), PANMI (rate 15): 0
damage to plant (100=total damage to plant; 0=no damage to plant), PANMI (rate 30): 0
damage to plant (100=total damage to plant; 0=no damage to plant), PANMI (rate 60): 0
damage to plant (100=total damage to plant; 0=no damage to plant), PANMI (rate 130): 0
damage to plant (100=total damage to plant; 0=no damage to plant), PANMI (rate 250): 0
damage to plant (100=total damage to plant; 0=no damage to plant), PANMI (rate 500): 30
damage to plant (100=total damage to plant; 0=no damage to plant), SETFA (rate 15): 10
damage to plant (100=total damage to plant; 0=no damage to plant), SETFA (rate 30): 80
damage to plant (100=total damage to plant; 0=no damage to plant), SETFA (rate 60): 70
damage to plant (100=total damage to plant; 0=no damage to plant), SETFA (rate 130): 90
damage to plant (100=total damage to plant; 0=no damage to plant), SETFA (rate 250): 100
damage to plant (100=total damage to plant; 0=no damage to plant), SETFA (rate 500): 100
damage to plant (100=total damage to plant; 0=no damage to plant), SIDSP (rate 15): 0
damage to plant (100=total damage to plant; 0=no damage to plant), SIDSP (rate 30): 0
damage to plant (100=total damage to plant; 0=no damage to plant), SIDSP (rate 60): 0
damage to plant (100=total damage to plant; 0=no damage to plant), SIDSP (rate 130): 0
damage to plant (100=total damage to plant; 0=no damage to plant), SIDSP (rate 250): 0
damage to plant (100=total damage to plant; 0=no damage to plant), SIDSP (rate 500): 0
damage to plant (100=total damage to plant; 0=no damage to plant), SORVU (rate 15): 0
damage to plant (100=total damage to plant; 0=no damage to plant), SORVU (rate 130): 10

— patent US20220281848A1, “PYRAZOLE-SUBSTITUTED PYRROLIDINONES AS HERBICIDES” (FMC Corporation, priority 2019, published 2022)
